Here are results for three compounds from ChEMBL document CHEMBL1158009, “Paclitaxel analogues from Taxus x media cv. Hicksii” (1999).

In one test the test system is MCF7. As to the kind of experiment: Cytotoxicity against human MCF7 cells assessed as ratio of ED50 for drug to ED50 for paclitaxel. In kind it is functional.
The test system of the next test is Tubulin. As to the kind of experiment: Inhibition of microtubule assembly = assessed as ratio of ED50 for drug to ED50 for paclitaxel.
The subject of a further test is MCF7R. Description: Cytotoxicity against human MCF7R cells assessed as ratio of ED50 for drug to ED50 for paclitaxel. In kind it is functional.

For `CCC(C)C(=O)N[C@H](c1ccccc1)[C@@H](O)C(=O)O[C@H]1C[C@@]2(O)[C@@H](OC(=O)c3ccccc3)[C@@H]3[C@]4(OC(C)=O)CO[C@@H]4C[C@H](O)[C@@]3(C)C(=O)[C@H](OC(C)=O)C(=C1C)C2(C)C` (some centres not stated), the figures for the “Ratio ED50” value in the test with MCF7 and in the test with Tubulin were over 10 and 6.7, respectively.
With `C/C=C(\C)C(=O)O[C@H]1[C@@H]2[C@]3(OC(C)=O)CO[C@@H]3C[C@H](O)[C@@]2(C)C(=O)[C@H](OC(C)=O)C2=C(C)[C@@H](OC(=O)[C@H](O)[C@H](NC(=O)c3ccccc3)c3ccccc3)C[C@]1(O)C2(C)C` [ISOCEPHALOMANNINE], the “Ratio ED50” value turned out to be 12 with MCF7 and 1.1 in the test on Tubulin.
As to `CC(=O)O[C@H]1C(=O)[C@@]2(C)[C@H]([C@H](OC(=O)c3ccccc3)[C@]3(O)C[C@H](OC(=O)[C@H](O)[C@H](NC(=O)/C=C/c4ccccc4)c4ccccc4)C(C)=C1C3(C)C)[C@]1(OC(C)=O)CO[C@@H]1C[C@@H]2O`, the entries for the “Ratio ED50” value in the test on MCF7, with Tubulin and with MCF7R were 1.3, 1.2 and 1.2, respectively.
